Experiments:
[1] = target: Neuronal acetylcholine receptor subunit alpha-7 (Homo sapiens, UniProt P36544); assay: Activity at human alpha7 nACh receptor expressed in Xenopus oocytes assessed as inhibition of acetyl chlone-induced currents by two-electrode voltage clamp method; format: cell-based, Oocyte
[2] = target: T1, Neuronal acetylcholine receptor; alpha4/beta2 (Homo sapiens, UniProt P17787+P43681); assay: Activity at human alpha-4-beta-2 nACh receptor expressed in Xenopus oocytes assessed as potentiation of acetyl chlone-induced currents by two-electrode voltage clamp method relative to control; format: cell-based; conditions: Oocyte
T1 sequence (P17787 whole entry): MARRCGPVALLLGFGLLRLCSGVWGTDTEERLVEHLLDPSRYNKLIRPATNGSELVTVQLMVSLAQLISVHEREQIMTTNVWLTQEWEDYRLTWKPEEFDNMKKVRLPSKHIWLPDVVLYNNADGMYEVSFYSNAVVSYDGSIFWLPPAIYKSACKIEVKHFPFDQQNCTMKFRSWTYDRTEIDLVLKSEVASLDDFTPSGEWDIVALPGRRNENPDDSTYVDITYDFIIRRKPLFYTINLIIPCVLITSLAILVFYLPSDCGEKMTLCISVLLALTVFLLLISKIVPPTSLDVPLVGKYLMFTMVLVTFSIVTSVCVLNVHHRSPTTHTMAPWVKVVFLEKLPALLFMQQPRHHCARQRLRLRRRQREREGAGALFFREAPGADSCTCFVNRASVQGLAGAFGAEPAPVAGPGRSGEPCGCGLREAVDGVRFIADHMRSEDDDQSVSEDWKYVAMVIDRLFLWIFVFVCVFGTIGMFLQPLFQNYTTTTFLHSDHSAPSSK
T1 sequence (P43681 whole entry): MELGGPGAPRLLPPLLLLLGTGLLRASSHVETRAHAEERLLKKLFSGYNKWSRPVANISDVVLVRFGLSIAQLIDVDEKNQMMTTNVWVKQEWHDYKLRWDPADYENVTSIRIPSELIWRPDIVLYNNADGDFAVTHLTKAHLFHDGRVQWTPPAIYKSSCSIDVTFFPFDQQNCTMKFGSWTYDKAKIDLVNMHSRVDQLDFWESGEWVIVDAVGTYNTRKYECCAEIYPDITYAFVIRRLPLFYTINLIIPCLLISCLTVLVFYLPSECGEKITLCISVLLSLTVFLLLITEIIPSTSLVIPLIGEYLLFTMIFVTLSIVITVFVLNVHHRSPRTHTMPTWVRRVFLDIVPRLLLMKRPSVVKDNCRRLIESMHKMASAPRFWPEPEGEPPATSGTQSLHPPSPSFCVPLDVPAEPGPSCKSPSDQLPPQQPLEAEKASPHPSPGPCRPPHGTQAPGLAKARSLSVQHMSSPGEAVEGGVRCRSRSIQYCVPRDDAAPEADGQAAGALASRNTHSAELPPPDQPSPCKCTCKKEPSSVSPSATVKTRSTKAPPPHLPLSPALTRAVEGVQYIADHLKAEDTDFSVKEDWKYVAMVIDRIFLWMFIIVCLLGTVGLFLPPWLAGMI

[3] = target: T1, Neuronal acetylcholine receptor; alpha4/beta2; assay: Activity at human alpha-4-beta-2 nACh receptor expressed in Xenopus oocytes assessed as inhibition of acetyl chlone-induced currents by two-electrode voltage clamp method; format: cell-based, Oocyte

Chain of Neuronal acetylcholine receptor subunit alpha-7 (P36544 whole entry): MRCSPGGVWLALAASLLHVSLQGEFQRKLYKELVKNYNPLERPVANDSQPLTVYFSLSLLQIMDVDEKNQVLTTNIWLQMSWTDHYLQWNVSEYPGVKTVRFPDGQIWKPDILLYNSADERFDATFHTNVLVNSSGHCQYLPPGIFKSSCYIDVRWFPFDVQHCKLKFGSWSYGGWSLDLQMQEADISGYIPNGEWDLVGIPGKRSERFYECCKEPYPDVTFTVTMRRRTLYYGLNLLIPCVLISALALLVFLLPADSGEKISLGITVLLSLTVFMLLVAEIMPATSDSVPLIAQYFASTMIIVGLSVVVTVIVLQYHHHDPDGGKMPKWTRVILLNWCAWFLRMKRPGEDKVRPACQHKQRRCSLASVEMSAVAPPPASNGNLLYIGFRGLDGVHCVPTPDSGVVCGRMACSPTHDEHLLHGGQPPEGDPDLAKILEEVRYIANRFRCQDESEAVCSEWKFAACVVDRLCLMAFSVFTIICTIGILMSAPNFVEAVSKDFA

Row | SMILES | IC50 [1] [µM] | Activity [2] [%] | IC50 [3] [µM]
1 | CNCCc1cn(CC=C(C)C)c2cc(Br)ccc12 [DEFORMYLFLUSTRABROMINE B] | 209 |  | 
2 | C=CC(C)(C)c1[nH]c2cc(Br)ccc2c1CCNC [DESFORMYLFLUSTRABROMINE] | 44 | 295 | 150
